Reference: patent US20150031733A1, “TETRAZOLINONE COMPOUNDS AND ITS USE” (SUMITOMO CHEMICAL COMPANY, LIMITED, priority 2012, published 2015)
Where two headings read alike, the source gives them in different places.

Legend:
Format in all cases: in vivo
[1] = test system: common house mosquito (Culex pipiens pallens); test: Common house mosquito larva mortality test in treated water; settings: active ingredient concentration 3.5 ppm in water, last instar larva, read-out: mortality of insects
Protocol: Each formulation containing the present Compounds […] prepared according to the above-mentioned Formulation examples was diluted with water so that the active ingredient concentration was set to 500 ppm and the testing drug solutions were prepared. The above-mentioned drug solutions 0.7 mL were added to an ion-exchange water 100 mL (an active ingredient concentration: 3.5 ppm). Twenty (20) last instar larva of common house mosquito (Culex pipiens pallens) were released into the solutions and after 1 day, the number of the dead insects was counted. The mortality of insects was calculated by the following equation. Mortality of insects(%)=(Number of dead insects/Number of tested insects)×100 The testing drug solutions to be used in this Test example were prepared by diluting the formulations prepared according to the above-mentioned Formulation examples with an ion-exchange water so that the active ingredient concentration was set to 500 ppm. The above-mentioned drug solutions 0.7 mL were added to an ion-exchange water 100 mL so that the active ingredient concentration was set to 3.5 ppm. Twenty (20) last instar larva of common house mosquito (Culex pipiens pallens) were released into the solutions and after […], the number of the dead insects was counted. The mortality of insects was calculated by the following equation. Mortality of insects(%)=(Number of dead insects/Number of tested insects)×100

[2] = test system: cabbage moth (Plutella xylostella); test: Cabbage moth mortality test on sprayed cabbage; settings: 500 ppm, 20 mL/cup sprayed on cabbage, three instar larval stages, after 5 days
Protocol: The testing drug solutions to be used in this Test example were prepared by diluting the formulations prepared according to the above-mentioned Formulation examples with an ion-exchange water so that the active ingredient concentration was set to 500 ppm. Cabbage (green ball) was planted in a polyethylene cup and was grown until the third true leaf or the fourth true leaf was developed. To the cabbage (Brassicae oleracea) was sprayed the above-mentioned testing solutions in a ratio of 20 mL/cup. After the drug solutions were dried, to a polyethylene cup (diameter 5.5 cm) covered with a filter paper on the bottom, the cabbage cut out from the root was installed and five heads of cabbage moth (Plutella xylostella) at the three instar larval stages were released into the cup and the cup was covered with the lid. The cup was held at 25° C. and after 5 days, the number of the surviving insects was counted and the mortality of insects was calculated by the following equation. Mortality of insects(%)=(Number of dead insects/Number of tested insects)×100

[3] = test system: housefly (Musca domestica); test: Housefly mortality test on treated filter paper; settings: 500 ppm solution 0.7 mL on filter paper, female adult, after 24 hours
Protocol: Each formulation containing the present Compounds […] prepared according to the above-mentioned Formulation examples was diluted with water so that the active ingredient concentration was set to 500 ppm and the testing drug solutions were prepared. […] Ten (10) individuals of female adult housefly (Musca domestica) was released into the polyethylene cup and the cup was covered with the lid. After 24 hours, the number of the dead insects was counted. The mortality of insects was calculated by the following equation. Mortality of insects(%)=(Number of dead insects/Number of tested insects)×100

SMILES	mortality of insects [2] [%]	pest or weed control at 3.5 ppm ([1]; 192 h, after 8 day) [%]	also measured
COc1cc(Cl)ccc1-c1csc(OCc2c(C)cccc2-n2nnn(C)c2=O)n1 [Compound T143, 2-{[1-(4,5-dihydro-4-methyl-5-oxo-1H-tetrazole-1-yl)-3-methylphenyl-2-yl]methyloxy}-4-(4-chloro-2-methoxyphenyl)thiazole]	–	–	pest or weed control at 3.5 ppm ([1]; 24 h, after 1 day): 100%
Cc1cccc(-n2nnn(C)c2=O)c1COc1nc(-c2cccc(Br)c2)cs1 [Compound T145, 2-{[1-(4,5-dihydro-4-methyl-5-oxo-1H-tetrazole-1-yl)-3-methylphenyl-2-yl]methyloxy}-4-(3-bromophenyl)thiazole]	80	–	–
CCCCCCCc1ccccc1-c1csc(OCc2c(C)cccc2-n2nnn(C)c2=O)n1 [Compound T144, 2-{[1-(4,5-dihydro-4-methyl-5-oxo-1H-tetrazole-1-yl)-3-methylphenyl-2-yl]methyloxy}-4-(2-heptylphenyl)thiazole]	–	100	–
Cn1nnn(-c2ccc(F)cc2COc2nc(-c3ccc(Br)cc3)cs2)c1=O [Compound T147, 2-{[1-(4,5-dihydro-4-methyl-5-oxo-1H-tetrazole-1-yl)-4-fluorophenyl-2-yl]methyloxy}-4-(4-bromophenyl)thiazole]	–	100	–
COc1ccc(C)cc1-c1csc(OCc2c(C)cccc2-n2nnn(C)c2=O)n1 [Compound T148, 2-{[1-(4,5-dihydro-4-methyl-5-oxo-1H-tetrazole-1-yl)-3-methylphenyl-2-yl]methyloxy}-4-(5-methyl-2-methoxyphenyl)thiazole]	–	100	–
CCc1ccccc1-c1csc(OCc2c(C)cccc2-n2nnn(C)c2=O)n1 [Compound T125, 2-{[1-(4,5-dihydro-4-methyl-5-oxo-1H-tetrazole-1-yl)-3-methylphenyl-2-yl]methyloxy}-4-(2-ethylphenyl)thiazole]	80	–	pest or weed control at 3.5 ppm ([1]; 24 h, after 1 day): 100%
Cc1cccc(-n2nnn(C)c2=O)c1COc1nc(-c2ccc(I)cc2)cs1 [Compound T033, 2-{[1-(4,5-dihydro-4-methyl-5-oxo-1H-tetrazole-1-yl)-3-methylphenyl-2-yl]methyloxy}-4-(4-iodophenyl)thiazole]	–	–	mortality of insects [3]: 100%
CCc1cccc(-n2nnn(C)c2=O)c1COc1nc(-c2ccccc2C)cs1 [Compound T097, 2-{[1-(4,5-dihydro-4-methyl-5-oxo-1H-tetrazole-1-yl)-3-ethylphenyl-2-yl]methyloxy}-4-(2-methylphenyl)thiazole]	–	100	–
Cc1cccc(-n2nnn(C)c2=O)c1COc1nc(-c2c(F)c(F)c(F)c(F)c2F)cs1 [Compound T036, 2-{[1-(4,5-dihydro-4-methyl-5-oxo-1H-tetrazole-1-yl)-3-methylphenyl-2-yl]methyloxy}-4-(2,3,4,5,6-pentafluorophenyl)thiazole]	80	–	–
Cc1cccc(-n2nnn(C)c2=O)c1COc1nc(-c2ccc(Br)cc2F)cs1 [Compound T034, 2-{[1-(4,5-dihydro-4-methyl-5-oxo-1H-tetrazole-1-yl)-3-methylphenyl-2-yl]methyloxy}-4-(4-bromo-2-fluorophenyl)thiazole]	80	–	–
CCCCCCCc1cccc(-c2csc(OCc3c(C)cccc3-n3nnn(C)c3=O)n2)c1 [Compound T146, 2-{[1-(4,5-dihydro-4-methyl-5-oxo-1H-tetrazole-1-yl)-3-methylphenyl-2-yl]methyloxy}-4-(3-heptylphenyl)thiazole]	–	100	–
Cc1ccc(-c2csc(OCc3c(C)cccc3-n3nnn(C)c3=O)n2)cc1 [Compound T039, 2-{[1-(4,5-dihydro-4-methyl-5-oxo-1H-tetrazole-1-yl)-3-methylphenyl-2-yl]methyloxy}-4-(4-methylphenyl)thiazole]	–	–	mortality of insects [3]: 100%
Cc1ccccc1-c1csc(OCc2c(Br)cccc2-n2nnn(C)c2=O)n1 [Compound T091, 2-{[1-(4,5-dihydro-4-methyl-5-oxo-1H-tetrazole-1-yl)-3-bromophenyl-2-yl]methyloxy}-4-(2-methylphenyl)thiazole]	80	100	–
Cc1cccc(-n2nnn(C)c2=O)c1COc1nc(-c2ccc(C(C)(C)C)cc2)cs1 [Compound T042, 2-{[1-(4,5-dihydro-4-methyl-5-oxo-1H-tetrazole-1-yl)-3-methylphenyl-2-yl]methyloxy}-4-[4-(1,1-dimethylethyl)phenyl]thiazole]	80	100	–
CCCCc1ccc(-c2csc(OCc3c(C)cccc3-n3nnn(C)c3=O)n2)cc1 [Compound T041, 2-{[1-(4,5-dihydro-4-methyl-5-oxo-1H-tetrazole-1-yl)-3-methylphenyl-2-yl]methyloxy}-4-(4-butylphenyl)thiazole]	80	–	–
